Assay results from PubChem BioAssay (NCI).
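Test compounds were applied to cells in 96-well plates for 48 hours at 5 doses. The concentration for full growth arrest is given as TGI.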

Key:
Assay in all cases: NCI-60 cell line screen, 48 h
[1] = system: KM20L2 colon
[2] = system: NCI-H522 lung
[3] = system: OVCAR-4 ovarian
[4] = system: COLO 205 colon
[5] = system: RXF 393 renal
[6] = system: ACHN renal
[7] = system: MALME-3M melanoma
[8] = system: SW-620 colon
[9] = system: U251 CNS
[10] = system: HT29 colon
[11] = system: SNB-75 CNS
[12] = system: IGROV1 ovarian
[13] = system: TK-10 renal
[14] = system: HL-60(TB) leukemia
[15] = system: SF-268 CNS
[16] = system: KM12 colon
[17] = system: HCC-2998 colon
[18] = system: SK-MEL-2 melanoma
[19] = system: NCI-H460 lung
[20] = system: NCI-H226 lung

`COc1ccc2c3c(n(Cc4ccccc4)c(=O)c2c1)-c1cc(OC)c(OC)cc1C3C` (stereo not given) was tested, and the TGI [1] was > 100 µM, the TGI [2] was 47.8 µM and the TGI [3] was 47.7 µM. The TGI [4] was > 100 µM, the TGI [5] was 48.8 µM and the TGI [6] was 43.9 µM. The TGI [7] was 57.6 µM, the TGI [8] was > 100 µM and the TGI [9] was 35.8 µM. The TGI [10] was > 84.8 µM, the TGI [11] was 45.4 µM and the TGI [12] was > 100 µM. For the same compound, the TGI [13] was > 100 µM, the TGI [14] was > 100 µM and the TGI [15] was > 63.6 µM. The TGI [16] was > 100 µM, the TGI [17] was > 100 µM and the TGI [18] was 46 µM. The TGI [19] was 21.7 µM and the TGI [20] was > 75.9 µM.

In the case of `CC1(C)CC(=O)C2=C(C1)S/C(=C1/SC3=C(S1)C(=O)CC(C)(C)C3)S2`, the TGI [1] is reported as > 251 µM, the TGI [2] is reported as > 251 µM and the TGI [4] is reported as > 251 µM. For the same compound, the TGI [5] was > 251 µM, the TGI [6] was > 251 µM and the TGI [7] was > 251 µM. For the same compound, the TGI [8] was > 251 µM, the TGI [9] was > 251 µM and the TGI [10] was > 251 µM. For the same compound, the TGI [11] was > 251 µM, the TGI [12] was > 251 µM and the TGI [13] was > 251 µM. The TGI [14] was > 251 µM, the TGI [15] was > 251 µM and the TGI [16] was > 251 µM. For the same compound, the TGI [17] was > 251 µM, the TGI [18] was > 251 µM and the TGI [19] was > 251 µM.

`N#C/C(=C\c1ccc(O)c(O)c1)C(=O)NC1CCC(CC2CCC(NC(=O)/C(C#N)=C/c3ccc(O)c(O)c3)CC2)CC1` (stereo not given) gave a TGI [1] of 3.81 µM, a TGI [2] of 4.71 µM and a TGI [3] of 40.6 µM. For the same compound, the TGI [4] was 2.51 µM, the TGI [5] was 12.8 µM and the TGI [6] was 4.24 µM. The TGI [7] was 15 µM, the TGI [8] was 25.7 µM and the TGI [9] was 4.5 µM. The TGI [10] was 3 µM, the TGI [11] was 1.69 µM and the TGI [13] was > 54.7 µM. It also gave a TGI [14] of 6.09 µM, a TGI [15] of 5.46 µM and a TGI [16] of 2.92 µM. It also gave a TGI [17] of 7.43 µM, a TGI [18] of 3.89 µM and a TGI [19] of 1.13 µM. The TGI [20] was 14.3 µM.

`O=C(O)Cc1cccc2c1Oc1ccccc1S2` was tested, and the TGI [1] was > 100 µM, the TGI [3] was > 100 µM and the TGI [4] was > 100 µM. The TGI [5] was > 100 µM, the TGI [6] was > 100 µM and the TGI [7] was > 100 µM. For the same compound, the TGI [8] was > 100 µM, the TGI [9] was > 100 µM and the TGI [10] was > 100 µM. The TGI [11] was > 100 µM, the TGI [12] was > 100 µM and the TGI [13] was > 100 µM. The TGI [14] was > 100 µM, the TGI [15] was > 100 µM and the TGI [16] was > 100 µM. For the same compound, the TGI [17] was > 100 µM, the TGI [18] was > 100 µM and the TGI [19] was > 100 µM. For the same compound, the TGI [20] was > 100 µM.

`CC(=O)C1=C(C)Cn2c(=O)c3ccccc3c(=O)n2C1` was tested, and the TGI [1] was > 100 µM, the TGI [2] was > 100 µM and the TGI [3] was > 100 µM. For the same compound, the TGI [4] was > 100 µM, the TGI [5] was > 100 µM and the TGI [6] was > 100 µM. The TGI [7] was > 100 µM, the TGI [8] was > 100 µM and the TGI [9] was > 100 µM. The TGI [10] was > 100 µM, the TGI [11] was > 100 µM and the TGI [12] was > 100 µM. The TGI [13] was > 100 µM, the TGI [14] was > 100 µM and the TGI [15] was > 100 µM. For the same compound, the TGI [16] was > 100 µM, the TGI [17] was > 100 µM and the TGI [18] was > 100 µM. For the same compound, the TGI [19] was > 100 µM and the TGI [20] was > 100 µM.

In the case of `NNC(=S)N/N=C(/C(=O)Nc1cc(Cl)ccc1Cl)C1C(=O)Nc2ccccc2S1=O` (stereo not given), the TGI [1] is reported as > 100 µM, the TGI [2] is reported as > 100 µM and the TGI [3] is reported as > 100 µM. The TGI [4] was > 100 µM, the TGI [5] was > 100 µM and the TGI [6] was > 100 µM. For the same compound, the TGI [7] was > 100 µM, the TGI [8] was > 100 µM and the TGI [9] was > 100 µM. For the same compound, the TGI [10] was > 100 µM, the TGI [11] was > 100 µM and the TGI [12] was > 100 µM. The TGI [13] was > 100 µM, the TGI [14] was > 100 µM and the TGI [15] was > 100 µM. The TGI [16] was > 100 µM, the TGI [17] was > 100 µM and the TGI [18] was > 100 µM. For the same compound, the TGI [19] was > 100 µM and the TGI [20] was > 100 µM.

For `COc1cc(-c2cc(=O)c3c(O)c(OC)c(OC)c(OC)c3o2)ccc1O`, the TGI [1] was > 100 µM, the TGI [2] was 44.7 µM and the TGI [5] was 48 µM. The TGI [6] was > 100 µM, the TGI [7] was > 100 µM and the TGI [8] was > 100 µM. The TGI [9] was > 100 µM, the TGI [12] was 37.2 µM and the TGI [13] was 78.3 µM. The TGI [14] was 61.6 µM, the TGI [15] was > 100 µM and the TGI [16] was > 100 µM. The TGI [17] was > 100 µM, the TGI [18] was 46.1 µM and the TGI [19] was 69.2 µM.

`Cc1c(-c2nnc(-c3ccc(Cl)cc3)o2)c(=O)n(-c2ccccc2)n1C` was tested, and the TGI [1] was > 100 µM, the TGI [2] was > 100 µM and the TGI [3] was > 100 µM. The TGI [4] was > 100 µM, the TGI [5] was > 100 µM and the TGI [6] was > 100 µM. For the same compound, the TGI [7] was > 100 µM, the TGI [8] was > 100 µM and the TGI [9] was > 100 µM. For the same compound, the TGI [10] was > 100 µM, the TGI [11] was > 100 µM and the TGI [12] was > 100 µM. The TGI [13] was > 100 µM, the TGI [14] was > 100 µM and the TGI [15] was > 100 µM. For the same compound, the TGI [16] was > 100 µM, the TGI [17] was > 100 µM and the TGI [18] was > 100 µM. For the same compound, the TGI [19] was > 100 µM and the TGI [20] was > 100 µM.

With `CC(=O)c1cccc(NC(=O)C(=O)C(C2OC(=O)c3ccccc32)[N+](=O)[O-])c1` (stereo not given) the TGI [1] was > 100 µM, the TGI [3] was > 100 µM and the TGI [4] was > 100 µM. For the same compound, the TGI [5] was > 100 µM, the TGI [6] was > 100 µM and the TGI [7] was > 100 µM. The TGI [8] was > 100 µM, the TGI [9] was > 100 µM and the TGI [10] was > 100 µM. The TGI [11] was > 100 µM, the TGI [12] was > 100 µM and the TGI [13] was > 100 µM. For the same compound, the TGI [14] was > 100 µM, the TGI [15] was > 100 µM and the TGI [16] was > 100 µM. The TGI [17] was > 100 µM, the TGI [18] was > 100 µM and the TGI [19] was > 100 µM. The TGI [20] was > 100 µM.

For `CCOC(=O)c1cc2c(nc1N)-c1ncccc1CC2`, the TGI [1] was > 100 µM, the TGI [2] was > 100 µM and the TGI [3] was > 100 µM. The TGI [4] was 69.2 µM, the TGI [5] was > 100 µM and the TGI [6] was > 100 µM. For the same compound, the TGI [7] was > 100 µM, the TGI [8] was > 100 µM and the TGI [9] was > 100 µM. The TGI [10] was > 100 µM, the TGI [11] was > 100 µM and the TGI [12] was > 100 µM. The TGI [13] was > 100 µM, the TGI [14] was > 100 µM and the TGI [15] was > 100 µM. For the same compound, the TGI [16] was > 100 µM, the TGI [17] was > 100 µM and the TGI [18] was > 100 µM. For the same compound, the TGI [19] was > 100 µM and the TGI [20] was > 100 µM.

`CCSC1(SCC)CC(Cc2ccc(OC)cc2)N(C=NC(C)(C)C)C1` (stereo not given) was tested, and the TGI [1] was 56.9 µM, the TGI [2] was 31.1 µM and the TGI [3] was > 100 µM. The TGI [4] was 74.6 µM, the TGI [5] was 40.9 µM and the TGI [6] was > 100 µM. The TGI [7] was 37.5 µM, the TGI [8] was 43.1 µM and the TGI [9] was 62.7 µM. The TGI [10] was 51.5 µM, the TGI [11] was > 100 µM and the TGI [12] was > 100 µM. For the same compound, the TGI [13] was 63.2 µM, the TGI [14] was 26.6 µM and the TGI [15] was > 100 µM. For the same compound, the TGI [16] was 64.8 µM, the TGI [17] was 40.2 µM and the TGI [18] was > 100 µM. For the same compound, the TGI [19] was > 100 µM and the TGI [20] was > 100 µM.
